According to patent US9458194B2, “Compounds useful in the treatment and/or care of the skin and their cosmetic or pharmaceutical compositions” (Lubrizol Advanced Materials, Inc., priority 2013, dated 2016):
Several values for one entry are separate records, joined by “and”; a condition that tells them apart may be missing. Equal entries are not always repeated.

Test system: human LOXL1 gene promoter
Assay: Luminescence assay of human LOXL1 gene promoter activation (Renilla luciferase)
Assay type: cell-based
Conditions: 16-24 hours
Procedure: The effect of the compounds of the invention on the activity of the fibulin-5 and LOXL1 promoters was studied and compared to the levels of basal expression of the untreated cells (negative control) and with the effect of Interleukin-1β (IL-1β) in the same conditions.
Cells from an epithelial cell line doubly transfected with fibulin-5 and LOXL1 human promoters in which the luciferase gene is under the regulatory control of said promoters (4×10^4 cells/well) were seeded in a white plate and in a 96-well transparent plate, both treated with polylysine, and were incubated in Dulbecco's Modified Eagle Medium (DMEM-Glutamax™), with 10% of FBS, 1% Penicillin-Streptomycin (P/S), 1 mg/ml of Geneticin® (G418) and […] at 37° C. in at atmosphere with 5% CO2. After the incubation, the cells were incubated for 6 hours at 37° C. in at atmosphere with 5% CO2 with DMEM without serum. Then, this medium was removed and the cells were treated with different compounds at 0.1 mg/ml, 0.5 mg/ml, 1 mg/ml or 2 mg/mL in DMEM/1% FBS for 16-24 hours. As a positive control to activate the fibulin-5 and LOXL1 promoters 10 ng/ml of IL-1β were used and as a negative control untreated cells were used, just with DMEM/1% FBS. The incubations and treatments were carried out in parallel in the white plate and the transparent plate and in triplicate for each condition. After the treatment, the relative light units per second were determined (RLU/s) in the white plate by means of consecutive quantification of the activities of Firefly luciferase (fibulin-5 promoter) and Renilla luciferase (LOXL1 promoter), and the number of total cells/well in the transparent plate by means of staining with Crystal Violet (CV). To determine the Firefly and Renilla luciferase activities the Dual-Glo Luciferase Assay System kit by Promega was used. The cells were briefly lysed and the Firefly luciferase substrate was added. After incubating for 10 min at 25° C., the RLU/s were quantified by luminescence reader (Lumistar-BMG). Then the Firefly signal was extinguished and the Renilla luciferase substrate was added. After incubating for 5 min at 25° C., the RLU/s were quantified by the same luminescence reader. With regard to the determination of the total number of cells by Crystal Violet, the CV dyes the DNA of the cells and the quantity of dye taken by the cells can be measured in an absorbency reader at 630 nm (Multiskan Ascent). The color obtained is directly proportional to the total number of cells per well. The cells were briefly incubated with 0.05% CV plus 4% Formalin for 20 minutes and after several washes with Milli-Q water, the cells were left to dry for 1-2 hours and then 0.1 M of HCl was added for its immediate reading. The RLU/s of the luciferases corresponding to each promoter were normalized by the average of the total number of cells per condition. Three independent assays with 3 measurements per assay were carried out for Ac-L-Asp-L-Val-L-Lys-L-Tyr-OH at 0.1 mg/mL and 1 mg/mL. 1 assay with 3 measurements was carried out for the other compounds and concentrations.
The increase in the activity of the promoters with regard to the levels of expression of the negative control was determined.

- Increase in the activity of the human promoter of the LOXL1 gene with regard to the negative control (0.1 mg/mL): 7.12%
- Increase in the activity of the human promoter of the LOXL1 gene with regard to the negative control (1 mg/mL): 27% and 27.06%
- Increase in the activity of the human promoter of the LOXL1 gene with regard to the negative control (2 mg/mL): 10.41%
Substance: Ac-L-Asp-L-Val-L-Lys-L-Tyr-OH (Ac-DVKY-OH)
